Test results taken from article PMC9127501 (Frontiers in Microbiology, 2022).
“And” between values parts separate entries of the source, which are not always exact repeats. Equal values may be shown once. Read-outs that look alike come from different tables or passages of the source.

Assays:
recombinant SCoV-2 PLpro = recombinant SCoV-2 PLpro (Severe acute respiratory syndrome coronavirus 2, UniProt P0DTD1); assay: SCoV-2 PLpro inhibition assay (peptide-AMC fluorescence); assay type: biochemical, SARS-CoV-2; settings: 60 μM peptide-AMC, 37°C, 45 min
HCoV-229E [1] = assay: MTT-based antiviral assay (protection from virus-induced CPE) in HCoV-229E-infected MRC-5 cells; assay type: cell-based, Human Coronavirus strain 229E; settings: for maximum antiviral effect: MRC-5, maximum over concentrations tested; for % Antiviral Activity (Range) / EC50: HCoV-229E-infected MRC-5, 6 days; for % Antiviral Activity (Range): range over the assay conc. range of each compound; for EC50: MRC5, 144 h, no unit in head (assay conc. and CC50 columns in µM)
in vitro [2] = settings: human
HCoV-229E [3] = assay: qRT-PCR viral load in supernatants of HCoV-229E-infected MRC-5 cells; assay type: cell-based, Human Coronavirus strain 229E
SCoV-2 [4] = system: SCoV-2; set-up: method as in Meyer et al., [2020]; settings: at clinically relevant concentrations; ref Meyer et al., [2020]; cited from earlier work
PLpro = settings: reported value, reference not printed at the place; cited from earlier work
SCoV-2 [5] = assay: Immunofluorescence antiviral screening assay (SCoV-2 nucleocapsid staining) in Vero E6 cells; assay type: cell-based, SARS-CoV-2
Protocol: The antiviral activity of the selected compound against SCoV-2 was analysed by immunofluorescent assay in a 96-well plate. For this, ~10^4 Vero E6 cells per well were seeded and grown to ≥80% confluency. At this stage, cells in replicate wells were treated with a safe dose (identified from the cytotoxicity studies) of the selected compound or with 10μM Remdesivir. These assays also included the necessary negative controls for comparison. The cells were infected with SCoV-2 at 0.1 MOI and, post-30 h incubation, fixed in 4% paraformaldehyde, permeabilized with 0.3% Tween-20 and stained with anti-mouse mAb specific to SCoV-2 Nucleocapsid (primary) followed by staining with Alexafluor 568-labelled anti-mouse antibody (secondary). Prior to mounting, monolayers were treated with Hoechst 33342 to stain the nuclei and the images were captured using ImageXpress Micro Confocal (Molecular devices) at 10 × magnification (16 images/well). The data was analysed in MetaXpress software using a multi-wavelength cell scoring module and the cells double-positive for the viral nucleocapsid as well as nuclei were counted and compared with that in the controls.

[6] = Cytotoxicity assay in Vero E6 cells (Hoechst 33342 / Sytox orange imaging); settings: African green monkey
Vero E6 cells = assay: as above; settings: for cytotoxicity: Vero E6
in vitro [7] = settings: African green monkey, % Cell Viability, Vero E6, 30 h
[8] = MRC-5, across the tested concentrations
[9] = MRC-5 cells (human lung fibroblasts), uninfected
[10] = HCoV-229E-infected MRC-5, 6 days, range over the assay conc. range

Structure (SMILES): C[C@H]1O[C@H](O[C@H]2[C@H](O)[C@@H](O)[C@@H](O[C@H]3[C@H](O)[C@@H](O)C(O)O[C@@H]3CO)O[C@@H]2CO)[C@H](O)[C@@H](O)[C@@H]1N[C@H]1C=C(CO)[C@@H](O)[C@H](O)[C@H]1O (stereo partly shown) [Acarbose]
- IC50 (recombinant SCoV-2 PLpro; IC50, 100 nM PLpro): 2000 ± 280 µM
- maximum antiviral effect (HCoV-229E [1]; HCoV-229E): about 8%
- % Antiviral Activity (Range) (HCoV-229E [1]): +0.3 to +7.2%
- EC50 (HCoV-229E [1]; Human coronavirus 229E): > 7750 µM
- maximum cytotoxicity (MRC-5 cells; human): < 15%
- CC50 at 6 days (in vitro [2]): > 7750 µM
- cytotoxicity at 6 days (in vitro [2]): -15 to 7%

Structure (SMILES): CC(C)CN(C[C@@H](O)[C@H](Cc1ccccc1)NC(=O)O[C@H]1CO[C@H]2OCC[C@H]21)S(=O)(=O)c1ccc(N)cc1 [Darunavir]
- IC50 (recombinant SCoV-2 PLpro; 100 nM PLpro, read-out: IC50): 1320 ± 200 µM
- % Reduction in Viral Load (Range) (HCoV-229E [3]): 0.0 to +97.6%
- Log10 Reduction in Viral Load (Range) (HCoV-229E [3]): 0.0 to +1.62 Log10
- log10 inhibition / reduction in viral load (HCoV-229E [3]): 1.42 log10
- reduction in viral titers (HCoV-229E [3]): about 96%
- activity against SCoV-2 (in words) (SCoV-2 [4]): completely ineffective
- cytotoxicity (in vitro [2]): -14.4 to 97.2%
- viability (in vitro [2]): 44.5%

Structure (SMILES): Cc1cc2nc3c(=O)[nH]c(=O)nc-3n(C[C@H](O)[C@H](O)[C@H](O)COP(=O)(O)OP(=O)(O)OC[C@H]3O[C@@H](n4cnc5c(N)ncnc54)[C@H](O)[C@@H]3O)c2cc1C [FAD, Flavin adenine dinucleotide]
- IC50 (recombinant SCoV-2 PLpro; IC50, 100 nM PLpro): ~127 µM and 127 µM
- maximum antiviral effect (HCoV-229E [1]; HCoV-229E): about 8%
- % Antiviral Activity (Range) (HCoV-229E [1]): -1.3 to +8.1%
- EC50 (HCoV-229E [1]; Human coronavirus 229E): > 1200 µM
- maximum cytotoxicity (MRC-5 cells; [8]): < 15%
- CC50 at 6 days (in vitro [2]; [9]): > 1200 µM
- cytotoxicity at 6 days (in vitro [2]; [9]): -10.5 to 12.7%

Structure (SMILES): NC(=O)c1nc(F)c[nH]c1=O [Favipiravir]
- protection from virus-induced CPE (HCoV-229E [1]; 250 μM, HCoV-229E, MRC-5): failed to show any obvious protection
- % Antiviral Activity (Range) (HCoV-229E [1]): -0.6 to +26.9%
- inhibition at 500 µM (HCoV-229E [1]; Human coronavirus 229E, MRC5, 500 μM, HCoV-229E, MRC-5, read-out: cells in which virus-induced CPE was inhibited): ~17%
- % Reduction in Viral Load (Range) (HCoV-229E [3]; [10]): 0.0 to +81.6%
- Log10 Reduction in Viral Load (Range) (HCoV-229E [3]; [10]): +0.74 to 0.0 Log10
- CC50 at 6 days (in vitro [2]): 665 µM
- cytotoxicity at 6 days (in vitro [2]): -8.1 to 67.5%

Structure (SMILES): Cc1ccc(N)cc1C(=O)N[C@H](C)c1cccc2ccccc12 [GRL0617, (R)-5-amino-2-methyl-N-(1-(naphthalen-1-yl)ethyl) benzamide]
- % Antiviral Activity (Range) (HCoV-229E [1]): -1.9 to +33.7%
- % Reduction in Viral Load (Range) (HCoV-229E [3]; [10]): Inconsistent
- Log10 Reduction in Viral Load (Range) (HCoV-229E [3]; [10]): Inconsistent
- CC50 at 6 days (in vitro [2]): 137 µM
- cytotoxicity at 6 days (in vitro [2]): 6.2 to 76%

Structure (SMILES): OC[C@@H](O)[C@@H](O[C@@H]1O[C@H](CO)[C@H](O)[C@H](O)[C@H]1O)[C@H](O)[C@@H](O)CO [Lactitol]
- IC50 (recombinant SCoV-2 PLpro; IC50, 100 nM PLpro): 8800 ± 500 µM
- maximum antiviral effect (HCoV-229E [1]; HCoV-229E): about 8%
- % Antiviral Activity (Range) (HCoV-229E [1]): -1.2 to +5.3%
- EC50 (HCoV-229E [1]; Human coronavirus 229E): > 2900 µM
- maximum cytotoxicity (MRC-5 cells; [8]): < 15%
- CC50 at 6 days (in vitro [2]; [9]): > 2900 µM
- cytotoxicity at 6 days (in vitro [2]; [9]): -8.9 to 1.8%

Structure (SMILES): Cc1cccc(C)c1OCC(=O)N[C@@H](Cc1ccccc1)[C@@H](O)C[C@H](Cc1ccccc1)NC(=O)[C@H](C(C)C)N1CCCNC1=O [Lopinavir]
- IC50 (recombinant SCoV-2 PLpro; IC50, 100 nM PLpro): 1000 ± 100 µM
- Selectivity Index (CC50/EC50) (HCoV-229E [1]; HCoV-229E, MRC-5): 2.03
- % Antiviral Activity (Range) (HCoV-229E [1]): -6.3 to +72.4%
- EC50 (HCoV-229E [1]; Human coronavirus 229E): 33 µM
- log10 inhibition / reduction in viral load (HCoV-229E [3]; 40 μM, HCoV-229E, MRC-5): ~ 1.4 log10 and 1.42 log10
- reduction in viral titers (HCoV-229E [3]; 40 μM, HCoV-229E, MRC-5): about 96%
- % Reduction in Viral Load (Range) (HCoV-229E [3]; [10]): +96.2 to +29.1%
- Log10 Reduction in Viral Load (Range) (HCoV-229E [3]; [10]): +1.42 to +0.15 Log10
- CC50 at 6 days (in vitro [2]): 67 µM
- cytotoxicity at 6 days (in vitro [2]): -9.6 to 99.9%

Structure (SMILES): OC(c1cc(C(F)(F)F)nc2c(C(F)(F)F)cccc12)C1CCCCN1 (stereo not shown) [Mefloquine]
- IC50 (recombinant SCoV-2 PLpro; IC50, 100 nM PLpro): ~459 µM and 459 µM
- protection from virus-induced CPE (HCoV-229E [1]; 120 μM, HCoV-229E, MRC-5): ~ 62% and ~ 60%
- % Antiviral Activity (Range) (HCoV-229E [1]): -0.4 to +60.6%
- EC50 (HCoV-229E [1]; Human coronavirus 229E): 108 µM
- log10 inhibition of viral titers (HCoV-229E [3]; 120 μM, HCoV-229E, MRC-5): ~0.8 log10
- reduction in viral titers (HCoV-229E [3]; 120 μM, HCoV-229E, MRC-5): 84.7%
- % Reduction in Viral Load (Range) (HCoV-229E [3]; [10]): +84.7 to +38.4%
- Log10 Reduction in Viral Load (Range) (HCoV-229E [3]; [10]): +0.81 to +0.21 Log10
- % Inhibition (SCoV-2 N-positive cells) (SCoV-2 [5]; 0.5 µM (500 nM), SCoV-2-infected Vero E6, 30 h, 0.5 µM): 30% and 30.6%
- inhibition at 0.5 µM (SCoV-2 [5]; Severe acute respiratory syndrome coronavirus 2, Vero C1008, 30 h, read-out: % Inhibition (SCoV-2 N-positive cells), 0.5 µM (500 nM), SCoV-2-infected Vero E6, 30 h): ~31%
- CC50 at 6 days (in vitro [2]; [9]): 173 µM
- cytotoxicity at 6 days (in vitro [2]; [9]): 11.5 to 93.2%
- viability at 30 h, 0.5 µM [6]: 93.2%
- viability at 30 h, 5 µM [6]: 45.6%
- cytotoxicity (Vero E6 cells; 0.5 μM): 7%
- cytotoxicity (Vero E6 cells; 5 μM): about 45%

Structure (SMILES): CCC(CC)COC(=O)[C@H](C)N[P@](=O)(OC[C@H]1O[C@@](C#N)(c2ccc3c(N)ncnn23)[C@H](O)[C@@H]1O)Oc1ccccc1 [Remdesivir]
- % Inhibition (SCoV-2 N-positive cells) (SCoV-2 [5]; 10 µM, SCoV-2-infected Vero E6, 30 h): 99.2%
- cells protected from SCoV-2-induced CPE (SCoV-2 [5]; 10 μM, Vero E6): > 99%
- inhibition at 10 µM (SCoV-2 [5]; Severe acute respiratory syndrome coronavirus 2, Vero C1008, 30 h, 10 µM, SCoV-2-infected Vero E6, 30 h, read-out: % Inhibition (SCoV-2 N-positive cells)): > 99%
- viability at 10 µM (in vitro [7]): > 99%
- % Cell Viability (Vero E6 cells; 10 µM, Vero E6, 30 h): 99.23%

Structure (SMILES): CC(C)c1nc(CN(C)C(=O)N[C@H](C(=O)N[C@@H](Cc2ccccc2)C[C@H](O)[C@H](Cc2ccccc2)NC(=O)OCc2cncs2)C(C)C)cs1 [Ritonavir]
- protection from virus-induced CPE (HCoV-229E [1]; 70 μM, HCoV-229E, MRC-5): about 35%
- % Antiviral Activity (Range) (HCoV-229E [1]): -3.8 to +36.4%
- log10 inhibition / reduction in viral load (HCoV-229E [3]; 70 μM, HCoV-229E, MRC-5): ~0.6 log10
- reduction in viral titers (HCoV-229E [3]; 70 μM, HCoV-229E, MRC-5): 73.3%
- % Reduction in Viral Load (Range) (HCoV-229E [3]; [10]): +73.3 to -625.5%
- Log10 Reduction in Viral Load (Range) (HCoV-229E [3]; [10]): +0.57 to -0.86 Log10
- cytotoxicity at 6 days (in vitro [2]; [9]): 20.6 to 100%

Structure (SMILES): C[C@@H]1O[C@@H](OC[C@H]2O[C@@H](Oc3c(-c4ccc(O)c(O)c4)oc4cc(O)cc(O)c4c3=O)[C@H](O)[C@@H](O)[C@@H]2O)[C@H](O)[C@H](O)[C@H]1O [Rutin]
- virus-infected cells protected from virus-induced CPE (HCoV-229E [1]; HCoV-229E, MRC-5, concentration not stated at the place): about 37%
- % Antiviral Activity (Range) (HCoV-229E [1]): -1.1 to +37.1%
- log10 inhibition / reduction in viral titers (HCoV-229E [3]): ~0.2 log10
- reduction in viral titers (HCoV-229E [3]): 38.44%
- % Reduction in Viral Load (Range) (HCoV-229E [3]; [10]): +38.4 to -455.4%
- Log10 Reduction in Viral Load (Range) (HCoV-229E [3]; [10]): +0.21 to -0.74 Log10
- CC50 (in vitro [2]): 351 µM
- cytotoxicity (in vitro [2]): -5.9 to 89.5%
